From ChEMBL document CHEMBL3627608, “Crystal structures of human RIP2 kinase catalytic domain complexed with ATP-competitive inhibitors: Foundations for understanding inhibitor selectivity” (Bioorg Med Chem, 2015)

Columns and labels:
[1] = target: TRAF2 and NCK-interacting protein kinase (Homo sapiens) (UniProt Q9UKE5); assay: Inhibition of TNIK (unknown origin) at 10 uM after 120 mins P33 radiolabeled kinase activity assay
[2] = target: Receptor-interacting serine/threonine-protein kinase 2 (Homo sapiens, UniProt O43353); assay: Inhibition of full-length FLAG-6His-TEV tagged human RIP2 expressed in Sf9 cells assessed as residence time by fluorescent polarization assay
[3] = target: Tyrosine-protein kinase Srms (Homo sapiens) (UniProt Q9H3Y6); assay: Inhibition of SRMS (unknown origin) at 10 uM after 120 mins P33 radiolabeled kinase activity assay
[4] = target: Myosin light chain kinase 2, skeletal/cardiac muscle (Homo sapiens) (UniProt Q9H1R3); assay: Inhibition of MLCK2 (unknown origin) at 10 uM after 120 mins P33 radiolabeled kinase activity assay
[5] = target: Serine/threonine-protein kinase 10 (Homo sapiens) (UniProt O94804); assay: Inhibition of LOK (unknown origin) at 10 uM after 120 mins P33 radiolabeled kinase activity assay
[6] = target: Tyrosine-protein kinase CSK (Homo sapiens) (UniProt P41240); assay: Inhibition of CSK (unknown origin) at 10 uM after 120 mins P33 radiolabeled kinase activity assay
[7] = target: T1, Mitogen-activated protein kinase kinase kinase 6 (Homo sapiens) (UniProt O95382); assay: Inhibition of MEKK6 (unknown origin) at 10 uM after 120 mins P33 radiolabeled kinase activity assay
T1 sequence (whole entry): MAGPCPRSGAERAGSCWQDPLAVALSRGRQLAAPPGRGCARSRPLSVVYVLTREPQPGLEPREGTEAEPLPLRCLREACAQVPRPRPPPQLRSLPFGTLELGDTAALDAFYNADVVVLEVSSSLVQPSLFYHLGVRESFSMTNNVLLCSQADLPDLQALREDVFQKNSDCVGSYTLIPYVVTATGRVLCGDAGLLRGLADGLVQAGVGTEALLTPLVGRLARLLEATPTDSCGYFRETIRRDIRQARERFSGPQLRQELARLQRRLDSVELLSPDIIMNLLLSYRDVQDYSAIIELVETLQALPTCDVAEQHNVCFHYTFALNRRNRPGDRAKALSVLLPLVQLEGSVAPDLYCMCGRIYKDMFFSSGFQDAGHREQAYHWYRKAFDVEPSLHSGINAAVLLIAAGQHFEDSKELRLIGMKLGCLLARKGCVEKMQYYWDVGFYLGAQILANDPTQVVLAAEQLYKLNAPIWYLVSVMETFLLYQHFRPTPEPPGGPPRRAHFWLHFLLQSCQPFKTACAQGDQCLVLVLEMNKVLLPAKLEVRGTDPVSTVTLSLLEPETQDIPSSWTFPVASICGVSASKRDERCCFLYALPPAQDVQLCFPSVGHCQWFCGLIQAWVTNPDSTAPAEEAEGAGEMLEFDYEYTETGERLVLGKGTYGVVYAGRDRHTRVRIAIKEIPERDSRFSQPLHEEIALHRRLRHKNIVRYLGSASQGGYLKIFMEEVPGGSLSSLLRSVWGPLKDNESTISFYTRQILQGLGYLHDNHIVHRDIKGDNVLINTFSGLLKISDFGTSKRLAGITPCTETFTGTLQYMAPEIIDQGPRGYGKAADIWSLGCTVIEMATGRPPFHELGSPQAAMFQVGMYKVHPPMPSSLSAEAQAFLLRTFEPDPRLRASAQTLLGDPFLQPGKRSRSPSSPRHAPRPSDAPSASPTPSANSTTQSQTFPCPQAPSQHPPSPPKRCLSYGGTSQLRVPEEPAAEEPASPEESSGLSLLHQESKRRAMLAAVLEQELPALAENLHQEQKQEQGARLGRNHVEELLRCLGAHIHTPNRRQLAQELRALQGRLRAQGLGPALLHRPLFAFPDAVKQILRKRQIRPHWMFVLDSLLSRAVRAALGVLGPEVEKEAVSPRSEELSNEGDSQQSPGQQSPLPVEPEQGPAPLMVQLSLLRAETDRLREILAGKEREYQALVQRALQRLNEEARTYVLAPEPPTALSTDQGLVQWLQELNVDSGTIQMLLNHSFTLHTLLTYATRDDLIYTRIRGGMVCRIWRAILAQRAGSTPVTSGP

[8] = target: G protein-coupled receptor kinase 6 (Homo sapiens) (UniProt P43250); assay: Inhibition of GRK6 (unknown origin) at 10 uM after 120 mins P33 radiolabeled kinase activity assay
[9] = target: T2, Serine/threonine-protein kinase DCLK2 (Homo sapiens) (UniProt Q8N568); assay: Inhibition of DCAMKL2 (unknown origin) at 10 uM after 120 mins P33 radiolabeled kinase activity assay
T2 sequence (whole entry): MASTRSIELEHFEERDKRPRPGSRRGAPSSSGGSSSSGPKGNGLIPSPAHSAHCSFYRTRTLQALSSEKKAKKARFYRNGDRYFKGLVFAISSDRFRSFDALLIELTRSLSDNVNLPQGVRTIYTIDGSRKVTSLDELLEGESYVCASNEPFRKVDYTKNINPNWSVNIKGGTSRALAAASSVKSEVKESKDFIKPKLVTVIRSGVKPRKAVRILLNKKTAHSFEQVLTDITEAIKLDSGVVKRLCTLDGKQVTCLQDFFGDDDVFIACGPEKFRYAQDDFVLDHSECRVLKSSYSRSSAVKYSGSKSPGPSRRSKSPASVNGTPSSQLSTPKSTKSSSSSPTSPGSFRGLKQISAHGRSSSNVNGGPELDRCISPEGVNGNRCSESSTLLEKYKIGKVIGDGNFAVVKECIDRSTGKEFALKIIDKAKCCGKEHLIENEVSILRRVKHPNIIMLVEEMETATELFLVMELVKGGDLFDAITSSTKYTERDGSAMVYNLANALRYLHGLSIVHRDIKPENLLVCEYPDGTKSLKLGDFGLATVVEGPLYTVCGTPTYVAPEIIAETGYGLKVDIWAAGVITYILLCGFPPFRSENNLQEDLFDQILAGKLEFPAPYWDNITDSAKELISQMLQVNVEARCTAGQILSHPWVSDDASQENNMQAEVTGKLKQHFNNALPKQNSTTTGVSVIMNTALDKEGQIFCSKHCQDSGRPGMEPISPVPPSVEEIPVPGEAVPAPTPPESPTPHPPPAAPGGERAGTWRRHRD

[10] = target: Insulin receptor-related protein (Homo sapiens) (UniProt P14616); assay: Inhibition of IRR (unknown origin) at 10 uM after 120 mins P33 radiolabeled kinase activity assay
[11] = target: G protein-coupled receptor kinase 4 (Homo sapiens) (UniProt P32298); assay: Inhibition of GRK4 (unknown origin) at 10 uM after 120 mins P33 radiolabeled kinase activity assay
[12] = target: Insulin receptor (Homo sapiens) (UniProt P06213); assay: Inhibition of IR (unknown origin) at 10 uM after 120 mins P33 radiolabeled kinase activity assay
Chain of Insulin receptor (Homo sapiens) (P06213 28-758 limits assumed): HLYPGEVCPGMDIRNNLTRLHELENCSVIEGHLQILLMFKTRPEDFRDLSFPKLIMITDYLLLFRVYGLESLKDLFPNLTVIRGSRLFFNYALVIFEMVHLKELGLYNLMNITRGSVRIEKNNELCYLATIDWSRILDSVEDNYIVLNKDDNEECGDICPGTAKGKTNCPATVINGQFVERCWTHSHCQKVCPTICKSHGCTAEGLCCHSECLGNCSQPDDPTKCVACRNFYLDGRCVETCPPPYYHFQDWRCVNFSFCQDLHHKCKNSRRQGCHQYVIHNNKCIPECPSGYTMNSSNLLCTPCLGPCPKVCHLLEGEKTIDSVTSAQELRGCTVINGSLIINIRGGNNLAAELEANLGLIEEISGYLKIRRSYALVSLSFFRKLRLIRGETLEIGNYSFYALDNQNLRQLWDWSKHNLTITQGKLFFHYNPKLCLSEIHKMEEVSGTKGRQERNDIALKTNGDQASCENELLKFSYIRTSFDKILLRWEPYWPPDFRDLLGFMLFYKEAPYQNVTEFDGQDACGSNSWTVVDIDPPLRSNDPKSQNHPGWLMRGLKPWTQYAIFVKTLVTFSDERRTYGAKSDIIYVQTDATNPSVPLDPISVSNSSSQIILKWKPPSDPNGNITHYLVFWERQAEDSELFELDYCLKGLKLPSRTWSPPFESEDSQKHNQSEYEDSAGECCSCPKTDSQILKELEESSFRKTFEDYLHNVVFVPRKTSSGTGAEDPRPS
Chain of Insulin receptor (Homo sapiens) (P06213 763-1382 limits assumed): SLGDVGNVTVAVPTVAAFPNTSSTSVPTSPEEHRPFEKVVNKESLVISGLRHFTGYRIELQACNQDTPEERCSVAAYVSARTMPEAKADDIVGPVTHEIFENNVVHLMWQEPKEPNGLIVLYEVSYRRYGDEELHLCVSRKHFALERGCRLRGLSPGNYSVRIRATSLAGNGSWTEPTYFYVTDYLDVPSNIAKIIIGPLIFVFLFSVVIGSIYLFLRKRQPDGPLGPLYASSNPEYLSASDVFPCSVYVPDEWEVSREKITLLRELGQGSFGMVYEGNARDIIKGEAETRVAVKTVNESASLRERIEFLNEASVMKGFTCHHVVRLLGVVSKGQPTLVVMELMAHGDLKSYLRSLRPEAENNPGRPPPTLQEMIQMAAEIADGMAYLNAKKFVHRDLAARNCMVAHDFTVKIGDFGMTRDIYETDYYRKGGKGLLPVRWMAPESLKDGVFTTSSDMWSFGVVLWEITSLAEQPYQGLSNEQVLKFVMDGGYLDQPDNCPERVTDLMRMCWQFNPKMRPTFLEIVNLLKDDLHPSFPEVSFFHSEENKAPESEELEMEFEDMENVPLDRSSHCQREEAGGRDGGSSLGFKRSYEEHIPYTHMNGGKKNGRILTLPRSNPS

Chain of G protein-coupled receptor kinase 6 (Homo sapiens) (P43250 whole entry, looked up): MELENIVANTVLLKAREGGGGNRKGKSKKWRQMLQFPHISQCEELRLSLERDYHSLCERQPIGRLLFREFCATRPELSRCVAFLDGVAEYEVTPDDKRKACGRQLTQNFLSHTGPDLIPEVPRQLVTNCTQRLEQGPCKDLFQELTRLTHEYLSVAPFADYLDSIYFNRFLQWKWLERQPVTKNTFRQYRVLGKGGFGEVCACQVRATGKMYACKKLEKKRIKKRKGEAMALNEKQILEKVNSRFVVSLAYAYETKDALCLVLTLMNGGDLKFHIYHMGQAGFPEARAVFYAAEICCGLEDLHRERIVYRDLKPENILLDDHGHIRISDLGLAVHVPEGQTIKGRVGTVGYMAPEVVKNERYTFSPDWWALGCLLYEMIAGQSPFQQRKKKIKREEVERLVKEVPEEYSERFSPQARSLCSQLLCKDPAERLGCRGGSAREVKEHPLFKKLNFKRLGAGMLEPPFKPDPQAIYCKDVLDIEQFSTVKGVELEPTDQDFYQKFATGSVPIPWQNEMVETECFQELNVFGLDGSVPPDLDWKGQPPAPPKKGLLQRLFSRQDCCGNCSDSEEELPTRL
Chain of Tyrosine-protein kinase Srms (Homo sapiens) (Q9H3Y6 whole entry): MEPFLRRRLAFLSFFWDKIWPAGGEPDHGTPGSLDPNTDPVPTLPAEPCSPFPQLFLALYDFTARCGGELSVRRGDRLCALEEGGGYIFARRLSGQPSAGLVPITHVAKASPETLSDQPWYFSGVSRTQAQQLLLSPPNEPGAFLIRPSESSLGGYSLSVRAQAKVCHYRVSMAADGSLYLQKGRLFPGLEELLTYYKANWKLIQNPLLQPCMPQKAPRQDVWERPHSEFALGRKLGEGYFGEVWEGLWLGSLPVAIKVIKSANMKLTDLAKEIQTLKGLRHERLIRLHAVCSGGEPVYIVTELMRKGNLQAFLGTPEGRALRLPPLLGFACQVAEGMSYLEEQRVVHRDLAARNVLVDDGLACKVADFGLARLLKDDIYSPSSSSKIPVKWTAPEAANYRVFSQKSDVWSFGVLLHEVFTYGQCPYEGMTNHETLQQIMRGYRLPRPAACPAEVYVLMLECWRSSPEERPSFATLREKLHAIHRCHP
Chain of Serine/threonine-protein kinase 10 (Homo sapiens) (O94804 whole entry, looked up): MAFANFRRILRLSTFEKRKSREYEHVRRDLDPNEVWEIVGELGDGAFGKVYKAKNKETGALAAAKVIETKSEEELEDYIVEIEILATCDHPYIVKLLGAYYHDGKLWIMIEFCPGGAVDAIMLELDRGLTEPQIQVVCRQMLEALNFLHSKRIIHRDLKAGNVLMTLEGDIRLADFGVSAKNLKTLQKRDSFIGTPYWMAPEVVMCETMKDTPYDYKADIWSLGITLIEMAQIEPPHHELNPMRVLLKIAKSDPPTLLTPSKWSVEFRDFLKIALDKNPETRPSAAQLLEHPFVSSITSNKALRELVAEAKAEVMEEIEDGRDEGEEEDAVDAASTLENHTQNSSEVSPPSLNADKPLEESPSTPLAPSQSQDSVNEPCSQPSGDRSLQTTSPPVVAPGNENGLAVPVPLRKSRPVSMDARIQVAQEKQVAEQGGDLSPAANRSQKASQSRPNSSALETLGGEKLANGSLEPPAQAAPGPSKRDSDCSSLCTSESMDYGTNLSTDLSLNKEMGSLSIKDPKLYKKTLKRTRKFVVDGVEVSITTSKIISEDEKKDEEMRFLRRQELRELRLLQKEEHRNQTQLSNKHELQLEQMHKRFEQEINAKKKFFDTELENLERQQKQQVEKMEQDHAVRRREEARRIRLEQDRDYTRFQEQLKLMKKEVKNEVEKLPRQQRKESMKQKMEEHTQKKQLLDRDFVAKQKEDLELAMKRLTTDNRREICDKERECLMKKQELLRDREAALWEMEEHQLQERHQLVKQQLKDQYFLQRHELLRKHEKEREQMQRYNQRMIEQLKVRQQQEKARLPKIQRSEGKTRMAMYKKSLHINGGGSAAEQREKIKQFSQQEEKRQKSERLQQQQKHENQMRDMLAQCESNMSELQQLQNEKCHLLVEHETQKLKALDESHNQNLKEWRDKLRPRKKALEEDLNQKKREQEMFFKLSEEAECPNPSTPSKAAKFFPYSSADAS
Chain of Tyrosine-protein kinase CSK (Homo sapiens) (P41240 2-450 limits assumed): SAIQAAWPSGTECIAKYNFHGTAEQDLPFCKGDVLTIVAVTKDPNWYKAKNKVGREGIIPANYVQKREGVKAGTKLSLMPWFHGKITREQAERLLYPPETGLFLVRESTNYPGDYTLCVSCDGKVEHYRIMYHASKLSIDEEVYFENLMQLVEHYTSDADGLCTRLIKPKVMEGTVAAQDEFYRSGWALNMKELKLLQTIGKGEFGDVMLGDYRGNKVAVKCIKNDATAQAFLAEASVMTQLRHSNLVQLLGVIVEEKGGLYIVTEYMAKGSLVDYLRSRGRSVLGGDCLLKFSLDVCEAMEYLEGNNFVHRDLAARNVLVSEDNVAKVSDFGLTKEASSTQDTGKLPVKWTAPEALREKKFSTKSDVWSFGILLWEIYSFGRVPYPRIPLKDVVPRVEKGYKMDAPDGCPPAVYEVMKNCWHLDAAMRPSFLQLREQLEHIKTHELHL
Chain of Myosin light chain kinase 2, skeletal/cardiac muscle (Homo sapiens) (Q9H1R3 whole entry): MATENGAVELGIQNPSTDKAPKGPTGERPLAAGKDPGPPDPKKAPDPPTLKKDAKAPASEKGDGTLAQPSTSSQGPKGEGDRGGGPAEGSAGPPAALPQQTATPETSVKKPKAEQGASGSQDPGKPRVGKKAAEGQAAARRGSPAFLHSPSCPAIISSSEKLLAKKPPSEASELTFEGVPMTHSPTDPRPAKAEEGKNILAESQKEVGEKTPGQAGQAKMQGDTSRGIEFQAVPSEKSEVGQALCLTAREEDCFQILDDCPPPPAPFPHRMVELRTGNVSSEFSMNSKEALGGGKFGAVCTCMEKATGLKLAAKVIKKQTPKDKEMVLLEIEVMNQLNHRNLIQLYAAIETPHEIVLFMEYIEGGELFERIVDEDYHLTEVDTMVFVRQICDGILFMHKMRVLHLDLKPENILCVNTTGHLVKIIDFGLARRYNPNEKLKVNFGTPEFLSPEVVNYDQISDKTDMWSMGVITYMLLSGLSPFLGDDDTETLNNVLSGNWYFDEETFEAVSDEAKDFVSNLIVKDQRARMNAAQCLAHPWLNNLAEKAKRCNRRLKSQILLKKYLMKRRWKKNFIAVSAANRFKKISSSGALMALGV
Chain of G protein-coupled receptor kinase 4 (Homo sapiens) (P32298 whole entry, looked up): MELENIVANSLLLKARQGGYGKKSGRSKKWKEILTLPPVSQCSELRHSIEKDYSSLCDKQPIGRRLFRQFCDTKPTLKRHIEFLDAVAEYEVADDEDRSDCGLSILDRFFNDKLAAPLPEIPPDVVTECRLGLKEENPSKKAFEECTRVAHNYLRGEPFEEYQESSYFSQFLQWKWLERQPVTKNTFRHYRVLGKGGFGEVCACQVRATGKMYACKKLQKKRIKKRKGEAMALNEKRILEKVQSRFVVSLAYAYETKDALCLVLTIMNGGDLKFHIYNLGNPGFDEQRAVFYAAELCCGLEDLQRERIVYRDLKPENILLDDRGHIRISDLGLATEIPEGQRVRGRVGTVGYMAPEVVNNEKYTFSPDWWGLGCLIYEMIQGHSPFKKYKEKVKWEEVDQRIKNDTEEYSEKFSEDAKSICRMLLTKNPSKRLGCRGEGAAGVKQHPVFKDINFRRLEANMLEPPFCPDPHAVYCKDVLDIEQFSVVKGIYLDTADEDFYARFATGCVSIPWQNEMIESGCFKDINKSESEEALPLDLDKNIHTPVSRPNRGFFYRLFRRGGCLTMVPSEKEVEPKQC

inhibition [1] | T1/2 [2] | inhibition [3] | inhibition [4] | inhibition [5] | inhibition [6] | inhibition [7] | inhibition [8] | inhibition [9] | inhibition [10] | inhibition [11] | inhibition [12] | Compound
82.6% | 1.32 h | 98.4% | 30.2% | 74.8% | 100% | -4.09% | -5.6% | -1.11% | 10.1% | -2.43% | 0.58% | CS(=O)(=O)c1cccc(Nc2nccc(-c3sc(N4CCOCC4)nc3-c3cccc(NS(=O)(=O)c4c(F)cccc4F)c3)n2)c1
48.4% | 0.00167 h | 4.18% | 12.1% | 28.4% | 15.6% | -0.42% | -7.62% | -0.71% | 1.49% | -0.94% | 2.89% | COCCNC(=O)c1ccc2c(c1)nc(-c1cnc(-c3ccc(Cl)cc3)[nH]1)n2CCOC
93.9% | 1.42 h | -2.8% | 53.2% | 92.8% | 78.4% | 4.35% | -8.96% | 2.04% | 33% | -0.89% | 21.6% | CC(C)(C)c1cc(NC(=O)Nc2ccc(Oc3ccncc3)cc2)no1
